Experimental data: patent US20180355369A1, “Method for Increasing Plant Stress Tolerance and Seed Dormancy” (The Australian National University, priority 2015, published 2018)
*1 amine or outer side, *2 acyl side, *3 side chain or, on linkers, in order; H or OH if unused. Where a SMILES comes first, the peptide text is derived from it. Bridges are numbered along the chain shown (N, C = ends). Roman numbers before positions name the chains, in order. [ ]: non-standard residue; d: D form. Actinocin(9to1) = Cc1c2oc3c(C)ccc(C(=O)[*:1])c3nc-2c(C(=O)[*:2])c(N)c1=O; NMeV = CN[C@H](C(=O)O)C(C)C; Sar = CNCC(=O)O

Experiments:
[1] = PAP accumulation in leaves after petiole feeding; type: in vivo, Arabidopsis; conditions: petiole feeding of PAP for 1 h, alone or co-applied with LiCl or ATP
Method: (§1) Five- to six-week-old plants were used to prepare epidermal peels. ABA at a concentration of 20 μM in water was root fed to hydroponically grown plants or sprayed onto leaves using a Studio Series IS-875 with a 0.5 mm nozzle opening (Iwata). We investigated if PAP accumulation in the double mutants could affect the production of NO during ABA-induced stomatal closure by treating epidermal peels with the inhibitor of NO synthase N(G)-methyl-L-arginine (NMA). For the investigation of the effect of different chemicals on stomatal closure, 20 μM ABA (Sigma-Aldrich), 100 mM LiCl, or 1 mM ATP, 1 mM or 100 μM PAP (Sigma-Aldrich) alone or in different combinations were prepared in infiltration buffer (1 mM PIPES KOH pH 6.0, 1 mM Sodium citrate, 1 mM KCl, 15 mM Sucrose) modified from a cordycepin infiltration buffer.
Total adenosines were extracted with 0.1 M HCl, derivatization with chloroacetaldehyde and quantified fluorometrically after HPLC fractionation. 3′-phosphoadenosine 5′-phosphate (PAP) quantification was performed by integrating the HPLC peak area and converting these to pmol units using standard curves of 1, 5 and 10 pmol standard.

stomata = assay: Stomatal aperture in epidermal leaf peels; type: cell-based, Arabidopsis; conditions: for stomatal closure response to exogenous PAP with co-treatment: LiCl (SAL1 inhibitor) or ATP (PAP antiporter co-substrate) with PAP; for effect of inhibitor on ABA-induced stomatal closure: epidermal peels treated with ABA plus inhibitor
Method: as §1
Measurements of stomatal aperture were performed with epidermal strips taken from five- to six-week-old plants. Fully developed leaves were cut and placed with their adaxial side onto cello tape. The vein was removed by razor blade and the abaxial epidermis was subsequently peeled off by using another strip of cello tape. To promote stomatal opening, the peels left adhered to the Scotch (810D Magic Tape, ¾ inch, 3M) were placed in petri dishes filled with stomatal opening solution (10 mM MES, 5 mM KCl, 50 μM CaCl2, pH 6.5) and incubated for 2 h at 22° C. under 150-200 μmol photons m^−2 s^−1 of light. Once the stomata were fully open, strips were maintained in the opening buffer or treated with various compounds according to the experiment. After treatment, photographs of stomata were taken using Leica microscope (Leica Microsystems, Wetzlar, Germany) at 20×. Stomatal aperture was measured using the image-processing software ImageJ. For stomatal aperture measurements, the ratio of stomatal pore width and length was used instead of width as this normalizes the pores of stomata of different size. Small stomata with a stomatal pore length of less than 7.5 μm were discarded. For each data point, 90 stomata were measured in 3 independent experiments. In each experiment, 10 stomata were measured in 3 epidermal strips per sample per treatment.
Measurements of stomatal closure in response to ABA, PAP, cordycepin and ATP treatments were performed on epidermal strips from Arabidopsis and barley plants grown under specific conditions. Plants were grown under high humidity (approximately 80% RH) and 12 h/12 h and 22/20° C. light/dark cycle in a growth chamber. Epidermal peels of newly expanding true leaves of three to four-week old plants. Stomatal apertures were measured in epidermal peels of newly expanded leaves. Peels were taken from the abaxial leaf surface and were fixed to the glass bottom of the experimental chamber after coating the chamber surface with an optically clear and pressure-sensitive silicon adhesive (Factor II, Tucson, USA). The attached epidermal peel is subsequently immersed in an opening buffer (OB: 50 mM KCl, 5 mM MES titrated to pH 6.1 with NaOH) and incubated, at plant growth conditions, for approximately 2 h. Stomatal images were taken using a bright-field microscope capable of 400× magnification for 10 minutes in OB and subsequently in Measuring Buffer [MB: 10 mM KCl, 5 mM MES titrated to pH 6.1 with Ca(OH)2] or PAP or cordycepin or ABA (dissolved in MB) for another 50 min. In total this was a 60 minute time course and images of the epidermal section were taken every 5 minutes using NIS Elements software (Nikon, Japan). Stomata aperture width and length were measured using Image J (NIH, USA). The pore area of each stomate was calculated using these values under the assumption that the area of a stomatal pore was that of an ellipse. Data are expressed as percentage over the control.

[2] = Accumulation of PAP analogues in leaves post-spraying; type: in vivo, Arabidopsis thaliana; conditions: foliar spray 100 mM, soil-grown wild type plants; 1 hr, 4 hr, 1 d, 4 d
Method: Five week-old soil-grown wild type Arabidopsis plants were sprayed using a Studio Series IS-875 with a 0.5 mm nozzle opening (Iwata). Each plant was sprayed with approximately 100 μl of different PAP analogues (100 mM) or mock buffer (1% DMSO) and then returned to standard growth conditions. 100 mg leaf tissue was harvested and snap-frozen in liquid nitrogen at various timepoints post-spraying (1 hr, 4 hr, 1 d and 4 d). Total adenosines were extracted, derivatized and quantified by HPLC. Identification and quantification of Analogues 8, 12 and 13 were performed by comparison to authentic standards. Triplicate treatments were carried out, and data presented as mean+/−standard deviation.

AtSAL1 = molecular target: T1, AtSAL1 (Arabidopsis thaliana, UniProt Q42546); assay: Inhibition of in vitro AtSAL1 activity against PAP; type: biochemical; conditions: against 50 μM PAP, Analogue 12 at 0, 3.35, 13.4 or 50 μM
T1 construct: Ubiquitin fusion partner (pHUE vector) (cleaved yes); made in house; host or cells: Escherichia coli BL21 DE3
T1 sequence (Q42546 1-353): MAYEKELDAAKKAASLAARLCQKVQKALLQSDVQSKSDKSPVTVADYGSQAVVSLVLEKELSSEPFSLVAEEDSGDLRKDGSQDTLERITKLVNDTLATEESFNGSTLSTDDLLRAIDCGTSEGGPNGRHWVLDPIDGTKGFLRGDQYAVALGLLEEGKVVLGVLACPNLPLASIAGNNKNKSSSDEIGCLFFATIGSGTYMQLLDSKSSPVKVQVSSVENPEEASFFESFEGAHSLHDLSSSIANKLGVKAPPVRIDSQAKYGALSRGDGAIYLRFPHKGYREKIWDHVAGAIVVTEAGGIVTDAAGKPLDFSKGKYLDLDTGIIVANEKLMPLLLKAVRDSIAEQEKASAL
Method: For estimation of inhibition of AtSAL1 activity by PAP analogue 12, 200 ng of purified recombinant SAL1 protein was incubated in 75 μl 2×activity buffer (200 mM Tris-MES pH 7.5, 2 mM Mg acetate) and Analogue 12 at a concentration of 0, 3.35, 13.4 or 50 μM for 1 hour at room temperature. The samples were then placed on ice, and 75 μl PAP added for a final reaction condition of 100 mM Tris-MES pH 7.5, 1 mM Mg acetate and 50 μM PAP. The reaction was allowed to proceed at 25 degrees Celsius for 5 minutes, then stopped by flash freezing in liquid nitrogen. The AMP formed from degradation of PAP by SAL1 was quantified by derivatization and resolving on HPLC. Duplicate treatments were carried out, and data presented as mean+/−standard error.

Molecule: Nc1ncnc2c1ncn2[C@@H]1O[C@H](COP(=O)(O)OP(=O)(O)OP(=O)(O)O)[C@@H](O)[C@H]1O [ATP]
- accumulation of PAP in leaves [1]: significantly enhanced
- stomatal closure response to exogenous PAP with co-treatment (stomata): a stronger, cumulative response was achieved

Molecule: CCNC(=O)C1OC(n2cnc3c(N)ncnc32)C(O)C1O (stereo not shown) [Analogue 8, 5-(6-amino-9H-purin-9-yl)-N-ethyl-3,4-dihydroxytetrahydro-2-furancarboxamide]
- accumulation of PAP analogue in leaf tissue after spraying [2]: showed rapid accumulation of PAP analogues to levels comparable with those for PAP found in leaf tissue in vivo

Molecule: Nc1ncnc2c1nc(S)n2C1OC(CO)C(O)C1O (stereo not shown) [Analogue 12, 2-(6-amino-8-mercapto-9H-purin-9-yl)-5-(hydroxymethyl) tetrahydro-3,4-furandiol]
- accumulation of PAP analogue in leaf tissue after spraying [2]: showed rapid accumulation of PAP analogues to levels comparable with those for PAP found in leaf tissue in vivo
- inhibition of in vitro SAL1 activity (AtSAL1): inhibition of in vitro SAL1 activity
- inhibition of in vitro SAL1 activity (AtSAL1; listed as analogue 12): found to inhibit in vitro SAL1 activity

Molecule: COC(=O)C1OC(n2cnc3c(N)ncnc32)C(O)C1O (stereo not shown) [Analogue 13, methyl 5-(6-amino-9H-purin-9-yl)-3,4-dihydroxytetrahydro-2-furancarboxylate]
- accumulation of PAP analogue in leaf tissue after spraying [2]: showed rapid accumulation of PAP analogues to levels comparable with those for PAP found in leaf tissue in vivo

Molecule: Nc1ncnc2c1ncn2[C@@H]1O[C@H](CO)C[C@H]1O [Analogue 16, 3′-deoxyadenosine]
- stomatal closure in leaf peels (stomata; leaf peels of wild type plants, 1 hr, PAP 100 μM, ABA 100 μM, cordycepin 10 μM): elicited rapid stomatal closure similar to the PAP response

Molecule: [Cl-].[Li+] [LiCl]
- accumulation of PAP in leaves [1]: significantly enhanced
- stomatal closure response to exogenous PAP with co-treatment (stomata): a stronger, cumulative response was achieved

Molecule: CNC(=N)NCCC[C@H](N)C(=O)O [NMA, N(G)-methyl-L-arginine]
- effect of inhibitor on ABA-induced stomatal closure (stomata): reduced ABA-induced stomatal closure in Col-0Ler

Molecule: Cc1c2oc3c(C)ccc(C(=O)N[C@@H]4C(=O)N[C@H](C(C)C)C(=O)N5CCC[C@H]5C(=O)N(C)CC(=O)N(C)[C@@H](C(C)C)C(=O)O[C@@H]4C)c3nc-2c(C(=O)N[C@@H]2C(=O)N[C@H](C(C)C)C(=O)N3CCC[C@H]3C(=O)N(C)CC(=O)N(C)[C@@H](C(C)C)C(=O)O[C@@H]2C)c(N)c1=O [actinomycin D] (I: T[dV]P[Sar][NMeV] / II: T[dV]P[Sar][NMeV]; ester I:1-I:C, II:1-II:C; linker I:N-II:N via Actinocin(9to1))
- effect of inhibitor on ABA-induced stomatal closure (stomata): suppressed ABA-mediated closure to a lesser extent in ost1-2 alx8 than in the wild type

B1: Arabidopsis thaliana SAL1, mature recombinant protein (transit peptide excluded) (protein)
chain: MAYEKELDAAKKAASLAARLCQKVQKALLQSDVQSKSDKSPVTVADYGSQAVVSLVLEKELSSEPFSLVAEEDSGDLRKDGSQDTLERITKLVNDTLATEESFNGSTLSTDDLLRAIDCGTSEGGPNGRHWVLDPIDGTKGFLRGDQYAVALGLLEEGKVVLGVLACPNLPLASIAGNNKNKSSSDEIGCLFFATIGSGTYMQLLDSKSSPVKVQVSSVENPEEASFFESFEGAHSLHDLSSSIANKLGVKAPPVRIDSQAKYGALSRGDGAIYLRFPHKGYREKIWDHVAGAIVVTEAGGIVTDAAGKPLDFSKGKYLDLDTGIIVANEKLMPLLLKAVRDSIAEQEKASAL
- kcat (enzyme activity against PAP): up to 6-fold decrease in kcat for the oxidized dimeric rSAL1
